What was measured:
Assay type in all cases: in vivo
[1] = system: velvetleaf (Abutilon theophrasti, ABUTH); experiment: Post-emerge test, greenhouse herbicide activity screening; conditions: post-emerge, 14 days after application, rating scale 0-100
Excerpt: (§1) A standard greenhouse herbicide activity screening system was used to evaluate the herbicidal efficacy and crop safety of these test compounds. Seven broadleaf weed species including redroot pigweed (Amaranthus retroflexus, AMARE, velvetleaf (Abutilon theophrasti, ABUTH), sicklepod (Cassia obtusifolia, CASOB), ivyleaf morningglory (Ipomoea hederacea, IPOHE), lambsquarters (Chenopodium album, CHEAL), common ragweed (Ambrosia artemisizfolia L., AMBEL), and cocklebur (Xanthium strumarium, XANST) were used as test species. Four grass weed species including green foxtail (Setaria viridis, SETVI), barnyardgrass (Echinochloa crus-galli, ECHCG), johnsongrass (Sorghum halepense, SORHA), and large crabgrass (Digitaria sanguinalis, DIGSA) were also used. In addition, three crop species, field corn (Zea mays L., var. Dekalb 535, CORN), soybean (Glycine max L., var. Pella 86, SOY), and is upland rice (Oryza sp., var. Tebonnet, RICE) were included.
(§2) All plants were grown in 10 cm square plastic pots which were filled with a sandy loam soil mix. For pre-emerge tests, seeds were planted one day prior to application of the test compounds. For post-emerge tests, seeds were planted 8-21 days prior to the test to allow emergence and good foliage development prior to application of the test substances. At the time of the post-emerge application, plants of all species were usually at the 2-3 leaf stage of development.
(§3) All test compounds Were dissolved in acetone and applied to the test units in a volume of 187 l /ha. Test materials were applied at rates ranging from 15 g ai/ha to 1000 g ai/ha using a track sprayer equipped with a TJ8001E even flow flat fan spray nozzle. Plants were arranged on a shelf so that the top of the canopy (post-emerge) or top of the soil surface (pre-emerge) was 40-45 cm below the nozzle. Pressurized air was used to force the test solution through the nozzle as it was mechanically advanced (via electrically driven chain drive) over the top of all test plants/pots. This application simulates a typical commercial field herbicide application.
(§4) In the post-emerge test, a commercial non-ionic surfactant was also included (0.25% v/v) to enhance wetting of the leaf surfaces of target plants. Immediately after application, test units of the pre-emerge applications were watered at the soil surface to incorporate the test materials. Subsequently, these test units were bottom-watered. Post-emerge test units were always bottom-watered.
(§5) At 14 days after application of the test materials, phytotoxicity ratings were recorded. A rating scale of 0-100 was used as previously described in Research Methods in Weed Science, 2nd edition, B. Truelove, Ed., Southern Weed Science Society, Auburn University, Auburn, Ala. 1977. Briefly, “0” corresponds to no damage and “100” corresponds to complete death of all plants in the test unit. This scale was used both to determine efficacy against weed species and damage to crop species. Herbicide activity data for various compounds of this invention, which are shown by compound No. in Tables 1-8, are shown in Tables 11 and 12.

[2] = system: lambsquarters (Chenopodium album, CHEAL); experiment: as above; conditions: post-emerge, 14 days after application, rating scale 0-100
Excerpt: as §1, §2, §3, §4, §5

[3] = system: sicklepod (Cassia obtusifolia, CASOB); experiment: as above; conditions: post-emerge, 14 days after application, rating scale 0-100
Excerpt: as §1, §2, §3, §4, §5

[4] = system: large crabgrass (Digitaria sanguinalis, DIGSA); experiment: as above; conditions: post-emerge, 14 days after application, rating scale 0-100
Excerpt: as §1, §2, §3, §4, §5

[5] = system: redroot pigweed (Amaranthus retroflexus, AMARE); experiment: as above; conditions: post-emerge, 14 days after application
Excerpt: as §1, §2, §3, §4, §5

[6] = system: ivyleaf morningglory (Ipomoea hederacea, IPOHE); experiment: as above; conditions: post-emerge, 14 days after application, rating scale 0-100
Excerpt: as §1, §2, §3, §4, §5

[7] = system: green foxtail (Setaria viridis, SETVI); experiment: as above; conditions: post-emerge, 14 days after application, rating scale 0-100
Excerpt: as §1, §2, §3, §4, §5

[8] = system: barnyardgrass (Echinochloa crus-galli, ECHCG); experiment: as above; conditions: post-emerge, 14 days after application, rating scale 0-100
Excerpt: as §1, §2, §3, §4, §5

[9] = system: redroot pigweed (Amaranthus retroflexus, AMARE); experiment: Pre-emerge test, greenhouse herbicide activity screening; conditions: phytotoxicity rating 0-100, 14 days after application
Summary of the method: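 Sandy loam pots; pre-emerge: sown 1 d pre-spray, surface-watered after, then bottom-watered. Post-emerge: sown 8–21 d before, 2–3 leaf stage, + 0.25% v/v NIS, bottom-watered. Acetone, 187 l/ha track spray, 15–1000 g ai/ha. 0–100 injury score, day 14.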

[10] = system: upland rice (Oryza sp., var. Tebonnet, RICE); experiment: Pre-emerge test, crop safety; conditions: crop damage rating 0-100, 14 days after application
Summary of the method: (§6)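 Compounds in acetone were track-sprayed at 15-1000 g ai/ha (187 l/ha) on sandy loam pots: pre-emerge one day after seeding, post-emerge at 2-3 leaf stage with 0.25% v/v non-ionic surfactant. Phytotoxicity was rated 14 days later on a 0 (no damage) to 100 (complete death) scale.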

[11] = system: field corn (Zea mays L., var. Dekalb 535, CORN); experiment: Pre-emerge test, crop safety; conditions: crop damage rating 0-100, 14 days after application
Summary of the method: as §6

[12] = system: velvetleaf (Abutilon theophrasti, ABUTH); experiment: Pre-emerge test, greenhouse herbicide activity screening; conditions: phytotoxicity rating 0-100, 14 days after application
Excerpt: as §1, §2, §3, §4, §5

[13] = system: lambsquarters (Chenopodium album, CHEAL); experiment: as above; conditions: phytotoxicity rating 0-100, 14 days after application
Excerpt: as §1, §2, §3, §4, §5

[14] = system: sicklepod (Cassia obtusifolia, CASOB); experiment: as above; conditions: phytotoxicity rating 0-100, 14 days after application
Excerpt: as §1, §2, §3, §4, §5

[15] = system: large crabgrass (Digitaria sanguinalis, DIGSA); experiment: as above; conditions: phytotoxicity rating 0-100, 14 days after application
Excerpt: as §1, §2, §3, §4, §5

[16] = system: ivyleaf morningglory (Ipomoea hederacea, IPOHE); experiment: as above; conditions: phytotoxicity rating 0-100, 14 days after application
Excerpt: as §1, §2, §3, §4, §5

[17] = system: green foxtail (Setaria viridis, SETVI); experiment: as above; conditions: phytotoxicity rating 0-100, 14 days after application
Excerpt: as §1, §2, §3, §4, §5

[18] = system: barnyardgrass (Echinochloa crus-galli, ECHCG); experiment: as above; conditions: phytotoxicity rating 0-100, 14 days after application
Excerpt: as §1, §2, §3, §4, §5

[19] = system: upland rice (Oryza sp., var. Tebonnet, RICE); experiment: Post-emerge test, crop safety; conditions: post-emerge, 14 days after application, rating scale 0-100
Summary of the method: (§7)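 Each test used a mechanized track sprayer delivering 187 l/ha of acetone solution at 15–1000 g ai/ha. Post-emerge foliage at 2–3 leaves was treated with added 0.25% v/v non-ionic surfactant and bottom-watered only. Injury was assessed on day 14, where 100 means total kill.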

[20] = system: field corn (Zea mays L., var. Dekalb 535, CORN); experiment: Post-emerge test, crop safety; conditions: post-emerge, 14 days after application, rating scale 0-100
Summary of the method: as §7

## COc1c(Cl)cc(F)c(-n2c(=O)cc(C(F)(F)F)n(C)c2=O)c1NC(=O)OCc1ccc(C(C)C)cc1 [4-42]
[1]; 63 g ai/ha
  phytotoxicity rating ABUTH: 100
[1]; 250 g ai/ha
  phytotoxicity rating ABUTH: 100
[2]; 63 g ai/ha
  phytotoxicity rating CHEAL: 80
[2]; 250 g ai/ha
  phytotoxicity rating CHEAL: 90
[3]; 63 g ai/ha
  phytotoxicity rating CASOB: 0
[3]; 250 g ai/ha
  phytotoxicity rating CASOB: 0
[4]; 63 g ai/ha
  phytotoxicity rating DIGSA: 0
[4]; 250 g ai/ha
  phytotoxicity rating DIGSA: 0
[5]; 63 g ai/ha, rating scale 0-100 (0 no damage, 100 complete death)
  phytotoxicity rating AMARE: 75
[5]; 250 g ai/ha, rating scale 0-100
  phytotoxicity rating AMARE: 100
[6]; 63 g ai/ha
  phytotoxicity rating IPOHE: 40
[6]; 250 g ai/ha
  phytotoxicity rating IPOHE: 30
[7]; 63 g ai/ha
  phytotoxicity rating SETVI: 0
[7]; 250 g ai/ha
  phytotoxicity rating SETVI: 0
[8]; 63 g ai/ha
  phytotoxicity rating ECHCG: 0
[8]; 250 g ai/ha
  phytotoxicity rating ECHCG: 10
[9]; 63 g ai/ha
  Pre-emerge Herbicidal Activity AMARE: 30
[9]; 250 g ai/ha
  Pre-emerge Herbicidal Activity AMARE: 90
[10]; 63 g ai/ha
  Pre-emerge Herbicidal Activity RICE: 0
[10]; 250 g ai/ha
  Pre-emerge Herbicidal Activity RICE: 0
[11]; 63 g ai/ha
  Pre-emerge Herbicidal Activity CORN: 0
[11]; 250 g ai/ha
  Pre-emerge Herbicidal Activity CORN: 0
[12]; 63 g ai/ha
  Pre-emerge Herbicidal Activity ABUTH: 60
[12]; 250 g ai/ha
  Pre-emerge Herbicidal Activity ABUTH: 100
[13]; 63 g ai/ha
  Pre-emerge Herbicidal Activity CHEAL: 40
[13]; 250 g ai/ha
  Pre-emerge Herbicidal Activity CHEAL: 100
[14]; 63 g ai/ha
  Pre-emerge Herbicidal Activity CASOB: 0
[14]; 250 g ai/ha
  Pre-emerge Herbicidal Activity CASOB: 100
[15]; 63 g ai/ha
  Pre-emerge Herbicidal Activity DIGSA: 10
[15]; 250 g ai/ha
  Pre-emerge Herbicidal Activity DIGSA: 60
[16]; 63 g ai/ha
  Pre-emerge Herbicidal Activity IPOHE: 0
[16]; 250 g ai/ha
  Pre-emerge Herbicidal Activity IPOHE: 40
[17]; 63 g ai/ha
  Pre-emerge Herbicidal Activity SETVI: 30
[17]; 250 g ai/ha
  Pre-emerge Herbicidal Activity SETVI: 100
[18]; 63 g ai/ha
  Pre-emerge Herbicidal Activity ECHCG: 0
[18]; 250 g ai/ha
  Pre-emerge Herbicidal Activity ECHCG: 40
[19]; 63 g ai/ha
  phytotoxicity rating RICE (crop damage): 0
[19]; 250 g ai/ha
  phytotoxicity rating RICE (crop damage): 0
[20]; 63 g ai/ha
  phytotoxicity rating CORN (crop damage): 0
[20]; 250 g ai/ha
  phytotoxicity rating CORN (crop damage): 0
